Data reported in the CheMixHub ionic liquid set.

Experiment: xn = mol fraction of the nth substance listed

CC(C)O + O + CCCCCCCCCCCCOS(=O)(=O)[O-].[Na+]
298 K, 100 kPa, frequency 0.001 MHz
Details | electrical conductivity [S/m]
x1 = 0.01509, x3 = 0 | 0.00013
x1 = 0.02546, x2 = 0.9745 | 0.00014

O=S(=O)([N-]S(=O)(=O)C(F)(F)F)C(F)(F)F.[Na+] + CCCC[N+]1(C)CCCC1.O=S(=O)([N-]S(=O)(=O)C(F)(F)F)C(F)(F)F
100 kPa, x1 = 0.24
Details | electrical conductivity [S/m]
280.2 K | 0.013
338.7 K | 0.409
347.4 K | 0.521
400.6 K | 1.83

CCCC[n+]1ccn(C)c1.COP(=O)([O-])OC + CCCCCC(=O)O.CCCCCC(=O)[O-].CC[NH+](CC)CCO
101 kPa, x2 = 0
Details | viscosity [mPa·s]
298.15 K | 609
303.15 K | 426
318.15 K | 168.9
333.15 K | 79.9
358.15 K | 30.38
363.15 K | 25.86

CCCCCCCCCCCCCCCC[n+]1ccccc1.O=C([O-])c1ccccc1O + CC(C)[C@H](N)C(=O)O + O
electrical conductivity [S/m], 101 kPa
Details | 293.15 K | 298.15 K | 303.15 K | 308.15 K | 313.15 K
x2 = 0.0009002, x1 = 3.6e-07 | 0.000683 | 0.000771 | 0.000864 | 0.000967 | 0.00108
x2 = 0.0009002, x1 = 7.2e-07 | 0.000869 | 0.000983 | 0.0011 | 0.00123 | 0.00136
x2 = 0.0009002, x1 = 1.27e-06 | 0.00105 | 0.00118 | 0.00133 | 0.00148 | 0.00164
x2 = 0.0009002, x1 = 1.63e-06 | 0.00122 | 0.00138 | 0.00155 | 0.00173 | 0.00192
x2 = 0.0009002, x1 = 1.99e-06 | 0.00138 | 0.00156 | 0.00175 | 0.00194 | 0.00215
x2 = 0.0009002, x1 = 2.35e-06 | 0.00152 | 0.00174 | 0.00196 | 0.00219 | 0.00243
x2 = 0.0009002, x1 = 2.9e-06 | 0.00168 | 0.00193 | 0.00219 | 0.00247 | 0.00274
x2 = 0.0009002, x1 = 3.44e-06 | 0.00182 | 0.00207 | 0.00235 | 0.00266 | 0.003
x2 = 0.0009002, x1 = 3.98e-06 | 0.00195 | 0.00223 | 0.00254 | 0.00287 | 0.00322
x2 = 0.0009002, x1 = 4.53e-06 | 0.00208 | 0.00236 | 0.00269 | 0.00303 | 0.00342
x2 = 0.0009002, x1 = 4.89e-06 | – | – | – | 0.0032 | 0.00359
x2 = 0.0009002, x1 = 5.07e-06 | 0.00218 | 0.00249 | 0.00283 | – | –
x2 = 0.0009002, x1 = 5.43e-06 | 0.00228 | 0.0026 | 0.00295 | 0.00334 | 0.00376
x2 = 0.0009002, x1 = 5.79e-06 | 0.00238 | 0.00271 | 0.00307 | 0.00346 | 0.00389
x2 = 0.0009002, x1 = 6.16e-06 | 0.00246 | 0.0028 | 0.00317 | 0.00358 | 0.00403
x2 = 0.001799, x1 = 1.8e-07 | 0.00108 | 0.00122 | 0.00138 | 0.00154 | 0.00173
x2 = 0.001799, x1 = 3.6e-07 | 0.00119 | 0.00135 | 0.00152 | 0.00169 | 0.00189
x2 = 0.001799, x1 = 7.3e-07 | 0.00132 | 0.00149 | 0.00168 | 0.00188 | 0.00209
x2 = 0.001799, x1 = 1.09e-06 | 0.00145 | 0.00164 | 0.00185 | 0.00206 | 0.0023
x2 = 0.001799, x1 = 1.27e-06 | 0.00157 | 0.00178 | 0.00199 | 0.00222 | 0.00248
x2 = 0.001799, x1 = 1.46e-06 | 0.00171 | 0.00193 | 0.00216 | 0.00242 | 0.00269
x2 = 0.001799, x1 = 1.64e-06 | 0.00177 | 0.002 | 0.00225 | 0.00252 | 0.0028
x2 = 0.001799, x1 = 1.82e-06 | 0.00183 | 0.00207 | 0.00233 | 0.0026 | 0.0029
x2 = 0.001799, x1 = 2e-06 | 0.00188 | 0.00213 | 0.0024 | 0.00268 | 0.00299
x2 = 0.001799, x1 = 2.18e-06 | 0.00196 | 0.00224 | 0.00252 | 0.00282 | 0.00314
x2 = 0.001799, x1 = 2.37e-06 | – | 0.00234 | 0.00267 | 0.00298 | 0.00332
x2 = 0.001799, x1 = 2.55e-06 | 0.00205 | – | – | – | –
x2 = 0.001799, x1 = 2.73e-06 | 0.00216 | 0.00248 | – | 0.00317 | 0.00355
x2 = 0.001799, x1 = 3.09e-06 | 0.00226 | 0.00258 | 0.00292 | 0.0033 | 0.0037
x2 = 0.001799, x1 = 3.46e-06 | 0.00234 | 0.00268 | 0.00304 | 0.00342 | 0.00384

CCCC[n+]1ccn(C)c1.O=S(=O)([O-])C(F)(F)F + CCOC(C)=O
100 kPa
Details | viscosity [mPa·s]
298.15 K, x1 = 0.6095 | 28.3
298.15 K, x1 = 0.8932 | 55
303.15 K, x1 = 0.3978 | 13.4
303.15 K, x1 = 1 | 67
313.15 K, x1 = 0.0991 | 0.84
313.15 K, x1 = 1 | 43.7
318.15 K, x1 = 0.1916 | 2.57
318.15 K, x1 = 1 | 36.3
323.15 K, x1 = 0.7987 | 18.2
323.15 K, x1 = 0.8932 | 22.4

CCCC[n+]1ccn(C)c1.O=S(=O)([O-])C(F)(F)F + CS(C)=O + OCCO
viscosity [mPa·s], 100 kPa
Details | 298.15 K | 303.15 K | 308.15 K | 313.15 K | 318.15 K | 323.15 K
x1 = 0.0301, x2 = 0.903 | 3.07 | 2.75 | 2.47 | 2.25 | 2.04 | 1.86
x1 = 0.0698, x2 = 0.8409 | 3.41 | 3.16 | 2.83 | 2.56 | 2.32 | 2.12
x1 = 0.1006, x2 = 0.7931 | 4.04 | 3.69 | 3.29 | 2.96 | 2.67 | 2.43
x1 = 0.1311, x2 = 0.7537 | 5.33 | 4.67 | 4.14 | 3.69 | 3.31 | 3
x1 = 0.1702, x2 = 0.7004 | 6.5 | 5.61 | 4.93 | 4.37 | 3.9 | 3.51
x1 = 0.2067, x2 = 0.6494 | 8.13 | 6.91 | 6.04 | 5.31 | 4.71 | 4.21
x1 = 0.2329, x2 = 0.603 | 9 | 7.8 | 6.78 | 5.95 | 5.26 | 4.68
x1 = 0.2768, x2 = 0.5373 | 11.8 | 9.8 | 8.47 | 7.38 | 6.48 | 5.74
x1 = 0.3089, x2 = 0.4851 | 13.6 | 11.2 | 9.67 | 8.39 | 7.35 | 6.48
x1 = 0.3348, x2 = 0.4441 | 15.1 | 12.1 | 10.4 | 8.97 | 7.83 | 6.89
x1 = 0.3723, x2 = 0.3876 | 17.3 | 14.2 | 12.2 | 10.5 | 9.13 | 8
x1 = 0.4022, x2 = 0.3357 | 19 | 15.7 | 13.4 | 11.5 | 10 | 8.73
x1 = 0.4355, x2 = 0.2923 | 21.3 | 17.9 | 15.1 | 13 | 11.2 | 9.82
x1 = 0.473, x2 = 0.2581 | 23.3 | 19.3 | 16.3 | 14 | 12.1 | 10.5
x1 = 0.5076, x2 = 0.2336 | 25.5 | 21.2 | 17.9 | 15.2 | 13.1 | 11.4
x1 = 0.5442, x2 = 0.2004 | 27.9 | 23.2 | 19.6 | 16.6 | 14.3 | 12.4
x1 = 0.5775, x2 = 0.1858 | 30.3 | 25.2 | 21.2 | 18 | 15.4 | 13.4
x1 = 0.6051, x2 = 0.18 | 32.5 | 26.9 | 22.6 | 19.2 | 16.4 | 14.2
x1 = 0.6226, x2 = 0.1647 | 33.8 | 27.8 | 23.3 | 19.7 | 16.9 | 14.6
x1 = 0.6651, x2 = 0.1526 | 37.8 | 31 | 26.1 | 22 | 18.8 | 16.2
x1 = 0.6961, x2 = 0.1474 | 41.2 | 33.5 | 28.2 | 23.8 | 20.3 | 17.5
